Data set [1] relates to KRAS G12V dependent lung adenocarcinoma cell line, NCI-H441. Put plainly: Cellular pERK (Thr202/Tyr204) FRET/HTRF assay. The format is cell-based. Conditions: Homo sapiens. The gist of the method: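 NCI-H441 cells (KRAS G12V) were seeded and grown overnight at 37 °C, 5% CO2, then treated with compound in DMSO for 1 hr. Lysates were probed with a Eu3+-cryptate/d2 antibody sandwich against pERK1/2 Thr202/Tyr204 and read by HTRF at 665 nm; IC50 from curve fitting.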
(In general: Time-resolved FRET reads energy transfer from a long-lived donor to a nearby acceptor.)

Data set [2] can be described thus: Pharmacokinetic evaluation, single dosing (oral and intravenous) in rats. The format is in vivo, male Sprague-Dawley rats. Conditions: rat, plasma. Also noted: unit not given here. On the procedure:
Pharmacokinetic profile for test compound was measured by single dosing in male Sprague-Dawley rats. Animal weights were typically over 200 grams, and animals were allowed to acclimate to their new environment for at least 3 days prior to the initiation of any studies. One set of animals was dosed intravenous with test compound, 2 mg/kg in 20% PEG400, 10% HS-15 Solutol, 70% 50 mM citrate buffer (pH 4.0). Intravenous dosing solution concentration was 1.0 mg/mL. Time of blood sampling was 5 minutes, 15 minutes, 30 minutes, 1 hour, 2 hours, 4 hours, 8 hours, and 24 hours following intravenous dosing. Another set of animals was dosed orally with test compound, 30 mg/kg in 20% PEG400, 10% HS-15 Solutol, 70% 50 mM citrate buffer (pH 4.0). Oral dosing solution concentration was 3.0 mg/mL. Time of blood sampling was 15 minutes, 30 minutes, 1 hour, 2 hours, 4 hours, 8 hours, and 24 hours following oral dosing. Blood samples (˜0.2 mL/sample) were collected via jugular vein and placed in tubes containing Heparin-Na. The blood samples in tubes were mixed and then placed on wet ice prior to centrifugation for plasma. The blood samples were centrifuged at 4000 g for 5 minutes at 4° C. to obtain plasma. The obtained plasma was separated and stored frozen at approximately −80° C.
All the plasma samples were analyzed using a Shimadzu (DGU-405) HPLC with an API 6500+MS/MS system following the manufacturer's instructions. All the analytes were detected with positive-mode electrospray ionization (ES+). A standard curve for each test compound was generated and used to measure test compound concentrations in the rat plasma samples. Based on the time course sampling, an area under the curve (AUC) was calculated for the oral group and intravenous group. The percentage of rat bioavailability is calculated based on the equation shown below.
where F is bioavailability, AUCPO is area under curve of oral dosing, AUCIV is area under curve of intravenous dosing, DoseIV is the intravenous dose and DosePO is the oral dose. The oral dosing for the experiments presented in Table 5 was performed at 10 mg/kg unless noted otherwise.

[3] abbreviates: NCI-H441, pERK HTRF, NCI-H441 cells (KRAS G12V).
The mark [4] stands for this setting: NCI-H441, cellular pERK (Thr202/Tyr204) HTRF, NCI-H441 cells.

The results in this text go back to US20250282799A1, “SUBSTITUTED PYRIDO[4,3-d]PYRIMIDINES AS KRAS MODULATORS” (Alterome Therapeutics, Inc., priority 2023, published 2025).

The term IC50 denotes the concentration needed to halve the response being measured.

The structures appear in SMILES notation.

With `[2H]C([2H])([2H])Oc1c(F)ccc2cc(N)cc(-c3ncc4c(N5CCCC[C@H]6[C@H](F)[C@H]65)nc(OC([2H])([2H])[C@@]56CCCN5C[C@H](F)C6)nc4c3F)c12` [Example 58, 6-Fluoro-4-(8-fluoro-4-((1S,7R,8S)-8-fluoro-2-azabicyclo[5.1.0]octan-2-yl)-2-(((2R,7aS)-2-fluorotetrahydro-1H-pyrrolizin-7a(5H)-yl)methoxy-d2)pyrido[4,3-d]pyrimidin-7-yl)-5-(methoxy-d3)naphthalen-2-amine], the concentration for half-maximal inhibition (IC50) in data set [1] (setting [3]) is less than 50 nM. In data set [2], the “IV (dose 2 mg/kg) (AUC/D) (h*mg/mL)” value came to 1401 and the “PO (dose 10 mg/kg) (AUC/D) (h*mg/mL)” value came out at 432.

In turn, `[2H]C([2H])([2H])Oc1c(F)ccc2cc(N)cc(-c3ncc4c(N5CCOC[C@H]6[C@H](F)[C@H]65)nc(OC([2H])([2H])[C@@]56CCCN5C[C@H](F)C6)nc4c3F)c12` [Example 90, 6-Fluoro-4-(8-fluoro-4-((1S,7S,8S)-8-fluoro-5-oxa-2-azabicyclo[5.1.0]octan-2-yl)-2-(((2R,7aS)-2-fluorotetrahydro-1H-pyrrolizin-7a(5H)-yl)methoxy-d2)pyrido[4,3-d]pyrimidin-7-yl)-5-(methoxy-d3)naphthalen-2-amine] yielded a concentration for half-maximal inhibition (IC50) in data set [1] (setting [3]) of less than 50 nM. Further, in data set [2], the “IV (dose 2 mg/kg) (AUC/D) (h*mg/mL)” value turned out to be 1086 and the “PO (AUC/D) (h*mg/mL), dose 30 mg/kg” value is 352.

On to `[2H]C([2H])([2H])Oc1c(F)ccc2cc(N)cc(-c3ncc4c(N5CCCO[C@H]6[C@H](F)[C@H]65)nc(OC([2H])([2H])[C@@]56CCCN5C[C@H](F)C6)nc4c3F)c12` [Example 91, 6-Fluoro-4-(8-fluoro-4-((1R,7S,8R)-8-fluoro-2-oxa-6-azabicyclo[5.1.0]octan-6-yl)-2-(((2R,7aS)-2-fluorotetrahydro-1H-pyrrolizin-7a(5H)-yl)methoxy-d2)pyrido[4,3-d]pyrimidin-7-yl)-5-(methoxy-d′3) naphthalen-2-amine], for which the half-maximal inhibitory concentration (IC50) in data set [1] (setting [3]) was less than 50 nM. For the same molecule, in data set [2], the “IV (dose 2 mg/kg) (AUC/D) (h*mg/mL)” value is 609 and the “PO (dose 10 mg/kg) (AUC/D) (h*mg/mL)” value is given as 142.

`[2H]C([2H])(Oc1nc(N2CCCC[C@H]3[C@H](F)[C@H]32)c2cnc(-c3cc(O)cc4ccc(F)c(C#C)c34)c(F)c2n1)[C@@]12CCCN1C[C@H](F)C2` [Example 216, 5-ethynyl-6-fluoro-4-(8-fluoro-4-((1S,7R,8S)-8-fluoro-2-azabicyclo[5.1.0]octan-2-yl)-2-(((2R,7aS)-2-fluorotetrahydro-1H-pyrrolizin-7a(5H)-yl)methoxy-d2)pyrido[4,3-d]pyrimidin-7-yl)naphthalen-2-ol] registered an IC50 in data set [1] (setting [4]) of less than 50 nM. Also, in data set [2], the “IV (dose 2 mg/kg) (AUC/D) (h*mg/mL)” value was determined as 96 and the “PO (dose 10 mg/kg) (AUC/D) (h*mg/mL)” value is recorded as 0.0.

Consider `[2H]C([2H])(Oc1nc(N2CCOC[C@H]3[C@H](F)[C@H]32)c2cnc(-c3cc(O)cc4ccc(F)c(C#C)c34)c(F)c2n1)[C@@]12CCCN1C[C@H](F)C2` [Example 217, 5-Ethynyl-6-fluoro-4-(8-fluoro-4-((1S,7S,8S)-8-fluoro-5-oxa-2-azabicyclo[5.1.0]octan-2-yl)-2-(((2R,7aS)-2-fluorotetrahydro-1H-pyrrolizin-7a(5H)-yl)methoxy-d2)pyrido[4,3-d]pyrimidin-7-yl)naphthalen-2-ol], for which the half-maximal inhibitory concentration (IC50) in data set [1] (setting [4]) was less than 50 nM. For the same molecule, in data set [2], the “IV (dose 2 mg/kg) (AUC/D) (h*mg/mL)” value is given as 143 and the “PO (AUC/D) (h*mg/mL), dose 30 mg/kg” value worked out at 0.5.

In data set [1] (setting [4]), `[2H]C([2H])(Oc1nc(N2CCOC[C@H]3[C@H](F)[C@H]32)c2cnc(-c3cc(O)cc4ccc(Cl)c(C#C)c34)c(F)c2n1)[C@@]12CCCN1C[C@H](F)C2` [Example 260, 6-chloro-5-ethynyl-4-(8-fluoro-4-((1S,7S,8S)-8-fluoro-5-oxa-2-azabicyclo[5.1.0]octan-2-yl)-2-(((2R,7aS)-2-fluorotetrahydro-1H-pyrrolizin-7a(5H)-yl)methoxy-d2)pyrido[4,3-d]pyrimidin-7-yl)naphthalen-2-ol] gave an IC50 of less than 50 nM. Also, in data set [2], the “IV (dose 2 mg/kg) (AUC/D) (h*mg/mL)” value was 129 and the “PO (dose 10 mg/kg) (AUC/D) (h*mg/mL)” value is 0.4.

In data set [1] (setting [4]), `[2H]C([2H])(Oc1nc(N2CCOC[C@H]3[C@H](F)[C@H]32)c2cnc(-c3cc(N)cc4ccc(Cl)c(C#C)c34)c(F)c2n1)[C@@]12CCCN1C[C@H](F)C2` [Example 267, 6-Chloro-5-ethynyl-4-(8-fluoro-4-((1S,7S,8S)-8-fluoro-5-oxa-2-azabicyclo[5.1.0]octan-2-yl)-2-(((2R,7aS)-2-fluorotetrahydro-1H-pyrrolizin-7a(5H)-yl)methoxy-d2)pyrido[4,3-d]pyrimidin-7-yl)naphthalen-2-amine] gave an IC50 of less than 50 nM. In addition, in data set [2], the “IV (dose 2 mg/kg) (AUC/D) (h*mg/mL)” value is on record as 1066 and the “PO (dose 10 mg/kg) (AUC/D) (h*mg/mL)” value was found to be 97.
